pIC50: −log10 of the molar value.

For series [1] the following is noted: dose of 20 mg as a single intake; cited from earlier work.
Series [2] deals with TNFα production in plasma. Briefly: In vivo TNFα model in Wistar rat. The note with it: po, 1.5 h, 10 mg/kg p.o. 30 min before LPS i.p., plasma TNFα 90 min after LPS, male Wistar rats, read-out: % Inhibition to 10 mg/kg. From the text: The TFNα is a cytokin playing a central role in inflammation mechanisms. Its production may be induced by injection of lipopolysaccharid (LPS). It has been shown that the intracellular AMPc increase, produced in particular by PDE4 inhibitors, decreases the TNFα production in in vitro and in vivo models. Therefore it matters here to quantify in vivo anti-inflammatory potential of the compounds of the invention, administrated by oral route (p.o.) by measuring inhibition of TNFα production in plasma in rat, the latter having received a intraperitoneal injection (i.p.) of lipolysaccharid (LPS). The treatment by the compounds of the invention or the carrier is administrated by oral route in male Wistar rats, 30 min. before LPS injection. The rats are sacrificed 90 min. after LPS stimulation, the blood is harvested on EDTA and TNFα concentration is measured in each plasma sample.

The subject of series [3] is TNFα production by human leukocytes. Briefly: Inhibition of TNFα production by human leukocytes stimulated by lipopolysaccharid. In kind it is cell-based. The note with it: Leukocyte; LPS-stimulated human leukocytes in 75% human serum; TNFα by ELISA after 15-18 hours. On the procedure:
This test aims to evaluate capacity of the compounds of the invention to inhibit TNFα (tumor necrosis-α) production by human leukocytes in the presence of high human serum concentration (75%). […] The test described here is based on the use of human leukocytes cultivated in 75% of human serum. It had been previously documented that these conditions simulate the observed situation when TNFα dosage is performed in human blood.
The compounds to test are dissolved into 20 mM (sometimes 6 mM) of DMSO. 100 μl of DMSO are distributed into 7 wells of a a 96 well microtiter plate (wells B to H). 150 μl of the compound solution are distributed into line A wells. 50 μl are then sequentially transferred 7 times. 20 μl of this serial dilutions of compounds are sequentially transferred twice in wells containing 180 μl of RPMI 1640 (Gibco). 50 μl of these dilutions are then transferred in wells where cells will be added.
Each test includes a series of eight wells without LPS (100% of inhibition), eight wells with LPS (0% of inhibition) and a series of Rolipram dilutions in order to enable comparison of the tests between each other and then to evaluate their variability.
A leukocyte vial is unfrozen in bain-marie (37° C.), its content is transferred into a 15 ml tube containing 10 ml of RPMI added with 5% of human serum (RPMI-5% HS). The cells are sedimented (800 g, 6 minutes, 4° C.), resuspended in 10 ml of the same medium and counted by dilution in Trypan blue solution. After centrifugating (800 g, 6 minutes, 4° C.), the cells are resuspended to 2×10^6/ml in human serum.
To 50 μl aliquots of different dilutions of compounds, 100 μl of cells are added. The plates are then incubated 30 minutes at 37° C., then 50 μl of solution 4 μg/ml of LPS prepared in human serum are added. The plates are incubated for the night at 37° C.
After incubation for 15-18 hours, 90 μl of growth supernatant are taken and transferred into rounded-bottom microtiter wells. The TNFα presence is then evaluated by ELISA (Pharmingen) by using 50 μl of supernatant. The protocol described by the manufacturer is strictly applied.
In general terms: An ELISA detects its analyte on a solid surface through an enzyme-linked reagent.

Series [4] addresses type 4 phosphodiesterases (PDE4). Briefly: Inhibition of the phosphodiesterase (PDE4), enzymatic preparation from line U937. Particulars: PDE4 from cytosolic preparation of human cell line U937. The series is classed as biochemical. In short, it runs like this: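 PDE4 came from a cytosolic preparation of human U937 cells. Enzymatic activity was measured with inhibitor at 0.1 to 100 μM. IC50 was defined as the concentration inhibiting 50% of enzyme activity.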

Consider `COc1ccc([C@]2(C#N)CC[C@@H](C(=O)O)CC2)cc1OC1CCCC1` [Ariflo], for which the adverse events entry in series [1] was “significant adverse events, of the nausea and vomiting type”.
What is called pIC50 is the negative decadic logarithm of the IC50, by convention in mol/L. A higher pIC50 goes with a small IC50. For `CN(C)c1nnc2n(C/C=C/c3cccnc3)c(=O)c3cc(Br)ccc3n12` [Compound 3, 7-Bromo-1-dimethylamino-4-((E)-3-pyridin-3-yl-allyl)-4H-[1,2,4]triazolo[4,3-a]quinazolin-5-one], the change in vivo at 10 mg/kg in series [2] is -98%. Moreover, the results for the negative logarithm of the IC50 (pIC50) in series [3] and in series [4] were 5.47 and 7.10, respectively.
Broadly, the melting point is the temperature, or range, at which the solid turns liquid. Molecule `CN(C)c1nnc2n(Cc3ccc(C#N)cc3)c(=O)c3cc(Br)ccc3n12` [Compound 79, 4-(7-Bromo-1-dimethylamino-5-oxo-5H-[1,2,4]triazolo[4,3-a]quinazolin-4-ylmethyl)-benzonitrile] gave a melting point of 207 °C. Also, the change in vivo at 10 mg/kg in series [2] is -72%. Also, the pIC50 in series [3] was 5.28. The same molecule showed a pIC50 in series [4] of 6.85.
For `CN(C)c1nnc2n(CC=Cc3ccccc3)c(=O)c3cc(Br)ccc3n12` [Compound 85, 7-Bromo-1-dimethylamino-4-(3-phenyl-allyl)-4H-[1,2,4]triazolo[4,3-a]quinazolin-5-one] the same measures were 171 °C, -77%, 5.17 and 7.39.
For `Cc1ccc2c(c1)c(=O)n(Cc1ccc(C#N)cc1)c1nnc(N3CCCC3)n21` [Compound 93, 4-(7-Methyl-5-oxo-1-pyrrolidin-1-yl-5H-[1,2,4]triazolo[4,3-a]quinazolin-4-ylmethyl)-benzonitrile], the melting point amounted to 166 °C. The change in vivo at 10 mg/kg in series [2] is -67%. The same molecule showed a pIC50 in series [3] of 5.37.
As for `COc1ccc(Cn2c(=O)c3cc(C)ccc3n3c(N4CCCC4)nnc23)cc1OC` [Compound 94, 4-(3,4-Dimethoxy-benzyl)-7-methyl-1-pyrrolidin-1-yl-4H-[1,2,4]triazolo[4,3-a]quinazolin-5-one], the melting point was determined as 184 °C. Also, the change in vivo at 10 mg/kg in series [2] was -87%. Further, the pIC50 in series [3] was 5.20. For the same molecule, the pIC50 in series [4] is 7.54.
With `Cc1ccc2c(c1)c(=O)n(CC=Cc1ccccc1)c1nnc(N3CCCC3)n21` [Compound 98, 7-Methyl-4-(3-phenyl-allyl)-1-pyrrolidin-1-yl-4H-[1,2,4]triazolo[4,3-a]quinazolin-5-one], the melting point stood at 173 °C. Moreover, the change in vivo at 10 mg/kg in series [2] was -75%. The molecule also had a negative-log IC50 (pIC50) in series [4] of 7.54.
Take `Cc1ccc2c(c1)c(=O)n(Cc1ccc(C#N)cc1)c1nnc(N(C)C)n21` [Compound 101, 4-(1-Dimethylamino-7-methyl-5-oxo-5H-[1,2,4]triazolo[4,3-a]quinazolin-4-ylmethyl)-benzonitrile]: the melting point came to 201 °C. Further, the change in vivo at 10 mg/kg in series [2] is -80%. The molecule also showed a negative-log IC50 (pIC50) in series [3] of 5.07.
In the case of `Cc1ccc2c(c1)c(=O)n(C/C=C/c1ccccc1)c1nnc(N(C)C)n21` [Compound 103, 1-Dimethylamino-7-methyl-4-((E)-3-phenyl-allyl)-4H-[1,2,4]triazolo[4,3-a]quinazolin-5-one], the melting point came out at 171 °C. In series [3], this molecule showed a negative-log IC50 (pIC50) of 4.97. The pIC50 in series [4] was 7.41.
Molecule `Cc1ccc2c(c1)c(=O)n(CC=Cc1cccnc1)c1nnc(N(C)C)n21` [Compound 104, 1-Dimethylamino-7-methyl-4-(3-pyridin-3-yl-allyl)-4H-[1,2,4]triazolo[4,3-a]quinazolin-5-one] gave a melting point of 155 °C. The change in vivo at 10 mg/kg in series [2] was -94%. This molecule had a negative logarithm of the IC50 (pIC50) in series [3] of 5.09. This molecule showed a negative-log IC50 (pIC50) in series [4] of 7.11.

The values above are taken from patent publication US6828315B1, “1-Amino triazoloc4,3-a! quinazoline-5-ones and/or -5-thiones inhibiting phosphodiesterase IV” (Warner-Lambert LLC, priority 1999, dated 2004).
